The structures appear in SMILES notation. Active and inactive are the calls of the source. The rule behind the calls is not given here.

The target of assay [1] is Fatty acid-binding protein 5 (Homo sapiens) (UniProt Q01469). Description: Binding affinity to FABP5 (unknown origin) at 1:1 ratio by fluorescence based thermal shift assay.
In assay [2] the target is Serine-protein kinase ATM (Homo sapiens) (UniProt Q13315). Put plainly: Inhibition of recombinant full-length human ATM at 10 uM using GST-cMyc-p53 as substrate measured after 40 mins by ELISA method relative to control. Background: In an ELISA, binding on a coated surface is turned into a signal by an enzyme label.
Assay [3] has as its target Rhodopsin kinase GRK7 (Homo sapiens) (UniProt Q8WTQ7). Description: Inhibition of full length recombinant human GRK7 at 10 uM using casein as substrate after 40 mins in presence of [gamma33P]ATP by scintillation counting method relative to control.
The target in assay [4] is Insulin-like growth factor 1 receptor (Homo sapiens) (UniProt P08069). Put plainly: Inhibition of recombinant human IGF1R activated (959 to end residues) at 10 uM using KKKSPGEYVNIEF as substrate after 40 mins in presence of [gamma33P]ATP by scintillation counting method relative to control.
Assay [5] deals with Inhibitor of nuclear factor kappa-B kinase subunit epsilon (Homo sapiens) (UniProt Q14164). Put plainly: Inhibition of full length recombinant human IKKepsilon at 10 uM using casein as substrate after 40 mins in presence of [gamma33P]ATP by scintillation counting method relative to control.
For assay [6], the target named is Tyrosine-protein kinase JAK3 (Homo sapiens) (UniProt P52333). Put plainly: Inhibition of recombinant human JAK3 (781 to end residues) at 10 uM using GGEEEEYFELVKKKK as substrate measured after 40 mins in presence of [gamm33P]ATP by scintillation counting method relative to control.
The subject of assay [7] is Angiopoietin-1 receptor (Homo sapiens), Q02763 [Q939H,Q940H]. Description: Inhibition of human Tie2 Q939H/Q940H mutant (771 to end residues) at 10 uM using poly(Glu, Tyr) 4:1 as substrate measured after 40 mins in presence of [gamma33P]ATP by scintillation counting method relative to control.
Assay [8] has as its target Serine/threonine-protein kinase NLK (Homo sapiens) (UniProt Q9UBE8). Put plainly: Inhibition of recombinant human NLK (121 to end residues) at 10 uM using myelin basic protein as substrate measured after 40 mins in presence of [gamma33P]ATP by scintillation counting method relative to control.
The target of assay [9] is CDK4/Cyclin D3 (Homo sapiens) (UniProt P11802+P30281). Description: Inhibition of recombinant full-length human CDK4/cyclinD3 at 10 uM using Rb fragment as substrate measured after 40 mins in presence of [gamma33P]ATP by scintillation counting method relative to control. The class given is protein-complex assay.
For assay [10], the species on record is Homo sapiens. Put plainly: Inhibition of recombinant human TEC activated F514V mutant (174 to end residues) at 10 uM using EFPIYDFLPAKKK as substrate measured after 40 mins in presence of [gamm33P]ATP by scintillation counting method relative to control.
Assay [11] addresses Ephrin type-A receptor 5 (Homo sapiens) (UniProt P54756). Put plainly: Inhibition of human EPHA5 (655 to 956 residues) using poly (Glu, Tyr) 4:1 as substrate at 10 uM after 40 mins in presence of [gamma-33P]-ATP by scintillation counting relative to control.
For assay [12], the target named is Serine/threonine-protein kinase 17B (Homo sapiens) (UniProt O94768). Put plainly: Inhibition of full-length recombinant human DRAK2 at 10 uM using KKRPQRRYSNVF as substrate after 120 mins by in presence of [gamma33P]ATP by scintillation counting method relative to control.
The test system of assay [13] is Serine/threonine-protein kinase N1 (Homo sapiens), Q16512 [V901I]. Put plainly: Inhibition of human PRK1 V901I mutant (498 to end residues) at 10 uM using KKLNRTLSFAEPG as substrate measured after 40 mins in presence of [gamma33P]ATP by scintillation counting method relative to control.
Assay [14] addresses Tyrosine-protein kinase Fgr (Homo sapiens) (UniProt P09769). Description: Inhibition of recombinant human FGR (2 to end residues) at 10 uM using poly(Glu, Tyr) 4:1 as substrate after 40 mins in presence of [gamma33P]ATP by scintillation counting method relative to control.
The target in assay [15] is Serine/threonine-protein kinase 4 (Homo sapiens) (UniProt Q13043). Description: Inhibition of recombinant full-length human MST1 at 10 uM using KKSRGDYMTMQIG as substrate measured after 40 mins in presence of [gamma33P]ATP by scintillation counting method relative to control.
For assay [16], the target named is Myosin light chain kinase, smooth muscle (Homo sapiens) (UniProt Q15746). Put plainly: Inhibition of recombinant human MLCK (1425 to 1771 residues) at 10 uM using […] as substrate measured after 40 mins in presence of [gamma33P]ATP by scintillation counting method relative to control.
The target of assay [17] is Serine/threonine-protein kinase 38-like (Homo sapiens) (UniProt Q9Y2H1). Description: Inhibition of recombinant human NDR2 (83 to end residues) at 10 uM using RSRSRSRSRSRSRSR as substrate measured after 40 mins in presence of [gamma33P]ATP by scintillation counting method relative to control.
Assay [18] deals with Transcriptional enhancer factor TEF-3 (Homo sapiens, UniProt Q15561). Description: Binding affinity to N-terminal His6-tagged human TEAD4-YBD (217 to 434 residues) expressed in Escherichia coli C43 (DE3) cells assessed as change in melting temperature at 1:4 ratio by SYPRO-dye based thermal shift assay.
Assay [19] addresses Beta-adrenergic receptor kinase 1 (Homo sapiens) (UniProt P25098). Put plainly: Inhibition of full length recombinant human GRK2 at 10 uM using casein as substrate after 40 mins in presence of [gamma33P]ATP by scintillation counting method relative to control.
In assay [20] the target is Serine/threonine-protein kinase D2 (Homo sapiens) (UniProt Q9BZL6). Description: Inhibition of full-length recombinant human PKD2 at 10 uM using KKLNRTLSVA as substrate after 40 mins by in presence of [gamma33P]ATP by scintillation counting method relative to control.
Assay [21] has as its target Ephrin type-B receptor 4 (Homo sapiens) (UniProt P54760). Put plainly: Inhibition of human EphB4 (561 to end residues) using poly (Glu, Tyr) 4:1 as substrate at 10 uM after 40 mins in presence of [gamma-33P]-ATP by scintillation counting relative to control.
The target of assay [22] is Insulin-like growth factor 1 receptor (Homo sapiens) (UniProt P08069). Description: Inhibition of recombinant human IGF1R (959 to end residues) at 10 uM using KKKSPGEYVNIEFG as substrate after 40 mins in presence of [gamma33P]ATP by scintillation counting method relative to control.
For assay [23], the species on record is Homo sapiens. Put plainly: Inhibition of recombinant human EphB2 A848S/K918E mutant (560 to end residues) using poly (Glu, Tyr) 4:1 as substrate at 10 uM after 40 mins in presence of [gamma-33P]-ATP by scintillation counting relative to control.
For assay [24], the target named is Mitogen-activated protein kinase kinase kinase 10 (Homo sapiens) (UniProt Q02779). Put plainly: Inhibition of recombinant human MLK2 (1 to 449 residues) at 10 uM using myelin basic protein as substrate measured after 40 mins in presence of [gamma33P]ATP by scintillation counting method relative to control.
Chain of Mitogen-activated protein kinase kinase kinase 10 (Homo sapiens) (Q02779 whole entry, looked up, the tested form may be a part): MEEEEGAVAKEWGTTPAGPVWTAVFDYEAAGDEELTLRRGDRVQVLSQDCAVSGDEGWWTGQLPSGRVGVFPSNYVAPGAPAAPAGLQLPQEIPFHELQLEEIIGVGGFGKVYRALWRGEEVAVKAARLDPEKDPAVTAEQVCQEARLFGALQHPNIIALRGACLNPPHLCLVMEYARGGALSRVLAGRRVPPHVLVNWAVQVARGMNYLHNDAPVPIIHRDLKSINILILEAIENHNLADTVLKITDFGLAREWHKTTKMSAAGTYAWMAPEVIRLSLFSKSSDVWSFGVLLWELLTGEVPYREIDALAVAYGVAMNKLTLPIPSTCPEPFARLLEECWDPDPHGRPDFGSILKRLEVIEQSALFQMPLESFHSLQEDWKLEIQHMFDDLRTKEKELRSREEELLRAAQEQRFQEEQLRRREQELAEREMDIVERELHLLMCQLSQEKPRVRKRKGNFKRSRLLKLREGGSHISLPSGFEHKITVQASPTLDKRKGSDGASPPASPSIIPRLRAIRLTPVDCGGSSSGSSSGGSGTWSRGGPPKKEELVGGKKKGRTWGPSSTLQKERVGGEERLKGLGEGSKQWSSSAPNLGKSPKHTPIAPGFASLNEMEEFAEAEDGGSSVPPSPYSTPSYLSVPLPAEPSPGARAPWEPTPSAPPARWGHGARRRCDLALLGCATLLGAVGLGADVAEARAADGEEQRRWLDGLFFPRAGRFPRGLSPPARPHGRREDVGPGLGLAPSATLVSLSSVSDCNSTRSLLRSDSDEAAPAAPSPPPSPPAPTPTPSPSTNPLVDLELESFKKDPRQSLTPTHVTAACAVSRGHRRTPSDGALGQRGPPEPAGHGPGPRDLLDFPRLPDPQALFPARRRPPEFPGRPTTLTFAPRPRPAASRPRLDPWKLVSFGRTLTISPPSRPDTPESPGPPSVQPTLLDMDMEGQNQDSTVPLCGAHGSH

Chain of Insulin-like growth factor 1 receptor (Homo sapiens) (P08069 31-736 limits assumed): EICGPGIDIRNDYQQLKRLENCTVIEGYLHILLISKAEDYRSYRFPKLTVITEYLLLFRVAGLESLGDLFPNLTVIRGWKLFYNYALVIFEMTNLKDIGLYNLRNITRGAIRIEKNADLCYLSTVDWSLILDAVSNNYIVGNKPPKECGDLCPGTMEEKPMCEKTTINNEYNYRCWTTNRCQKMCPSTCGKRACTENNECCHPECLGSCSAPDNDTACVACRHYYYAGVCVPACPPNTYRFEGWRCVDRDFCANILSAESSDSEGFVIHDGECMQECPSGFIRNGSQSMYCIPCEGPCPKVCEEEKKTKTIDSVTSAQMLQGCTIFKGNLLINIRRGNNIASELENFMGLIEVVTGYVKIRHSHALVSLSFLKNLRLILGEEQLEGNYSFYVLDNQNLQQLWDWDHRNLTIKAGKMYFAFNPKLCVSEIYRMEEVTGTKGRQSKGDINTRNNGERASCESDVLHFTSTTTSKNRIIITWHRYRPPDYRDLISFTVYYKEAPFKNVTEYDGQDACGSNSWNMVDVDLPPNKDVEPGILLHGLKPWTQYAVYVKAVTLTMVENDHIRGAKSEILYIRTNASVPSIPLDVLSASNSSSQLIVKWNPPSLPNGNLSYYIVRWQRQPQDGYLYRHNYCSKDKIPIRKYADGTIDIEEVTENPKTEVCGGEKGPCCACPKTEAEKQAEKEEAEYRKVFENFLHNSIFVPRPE
Chain of Insulin-like growth factor 1 receptor (Homo sapiens) (P08069 741-1367 limits assumed): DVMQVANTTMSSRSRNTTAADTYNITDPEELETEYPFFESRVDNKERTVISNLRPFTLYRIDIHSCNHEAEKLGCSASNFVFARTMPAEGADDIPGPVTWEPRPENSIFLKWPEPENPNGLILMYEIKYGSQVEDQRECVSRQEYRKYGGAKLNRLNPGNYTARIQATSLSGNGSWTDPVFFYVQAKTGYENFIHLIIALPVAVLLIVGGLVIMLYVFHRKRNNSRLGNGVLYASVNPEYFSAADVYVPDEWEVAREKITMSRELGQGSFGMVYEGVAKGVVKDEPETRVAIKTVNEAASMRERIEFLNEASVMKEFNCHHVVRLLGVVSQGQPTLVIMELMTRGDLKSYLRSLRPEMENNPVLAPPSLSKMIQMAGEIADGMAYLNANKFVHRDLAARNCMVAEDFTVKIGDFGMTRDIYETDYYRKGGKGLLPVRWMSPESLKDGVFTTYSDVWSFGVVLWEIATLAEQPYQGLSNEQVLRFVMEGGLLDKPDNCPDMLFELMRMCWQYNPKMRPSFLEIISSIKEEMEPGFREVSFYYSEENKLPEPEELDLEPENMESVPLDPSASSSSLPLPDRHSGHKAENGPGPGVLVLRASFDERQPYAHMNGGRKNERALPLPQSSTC
Chain of Fatty acid-binding protein 5 (Homo sapiens) (Q01469 whole entry): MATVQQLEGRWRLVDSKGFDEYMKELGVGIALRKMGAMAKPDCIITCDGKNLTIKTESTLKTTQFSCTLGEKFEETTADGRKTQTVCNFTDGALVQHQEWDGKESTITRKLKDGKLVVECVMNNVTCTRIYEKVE
Chain of Ephrin type-B receptor 4 (Homo sapiens) (P54760 whole entry): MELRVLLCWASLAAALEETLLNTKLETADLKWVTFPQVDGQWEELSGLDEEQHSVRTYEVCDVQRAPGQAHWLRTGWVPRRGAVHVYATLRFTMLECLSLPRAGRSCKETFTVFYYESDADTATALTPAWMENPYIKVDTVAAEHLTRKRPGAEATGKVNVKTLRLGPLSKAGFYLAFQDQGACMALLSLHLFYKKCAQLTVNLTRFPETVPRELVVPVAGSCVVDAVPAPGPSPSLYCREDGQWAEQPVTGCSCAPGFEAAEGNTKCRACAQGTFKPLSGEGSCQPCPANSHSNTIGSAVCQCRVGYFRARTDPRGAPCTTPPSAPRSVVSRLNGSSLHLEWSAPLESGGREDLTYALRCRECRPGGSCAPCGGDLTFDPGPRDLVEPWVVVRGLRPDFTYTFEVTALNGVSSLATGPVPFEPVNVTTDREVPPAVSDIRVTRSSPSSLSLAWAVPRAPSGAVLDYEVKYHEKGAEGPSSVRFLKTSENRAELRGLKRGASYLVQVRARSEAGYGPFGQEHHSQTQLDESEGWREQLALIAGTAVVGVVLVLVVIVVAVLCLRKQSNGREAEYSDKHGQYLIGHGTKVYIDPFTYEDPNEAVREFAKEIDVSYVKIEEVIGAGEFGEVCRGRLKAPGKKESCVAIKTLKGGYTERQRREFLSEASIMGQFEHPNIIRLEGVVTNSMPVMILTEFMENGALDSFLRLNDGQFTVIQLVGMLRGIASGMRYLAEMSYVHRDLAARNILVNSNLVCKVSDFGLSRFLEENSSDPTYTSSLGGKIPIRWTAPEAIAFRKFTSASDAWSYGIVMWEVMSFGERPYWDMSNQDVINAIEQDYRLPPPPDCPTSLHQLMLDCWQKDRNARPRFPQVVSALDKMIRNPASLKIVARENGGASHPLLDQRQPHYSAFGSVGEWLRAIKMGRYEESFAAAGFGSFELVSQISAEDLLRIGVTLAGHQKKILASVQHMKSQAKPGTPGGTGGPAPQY
Chain of Serine/threonine-protein kinase NLK (Homo sapiens) (Q9UBE8 whole entry, the tested form may be a part): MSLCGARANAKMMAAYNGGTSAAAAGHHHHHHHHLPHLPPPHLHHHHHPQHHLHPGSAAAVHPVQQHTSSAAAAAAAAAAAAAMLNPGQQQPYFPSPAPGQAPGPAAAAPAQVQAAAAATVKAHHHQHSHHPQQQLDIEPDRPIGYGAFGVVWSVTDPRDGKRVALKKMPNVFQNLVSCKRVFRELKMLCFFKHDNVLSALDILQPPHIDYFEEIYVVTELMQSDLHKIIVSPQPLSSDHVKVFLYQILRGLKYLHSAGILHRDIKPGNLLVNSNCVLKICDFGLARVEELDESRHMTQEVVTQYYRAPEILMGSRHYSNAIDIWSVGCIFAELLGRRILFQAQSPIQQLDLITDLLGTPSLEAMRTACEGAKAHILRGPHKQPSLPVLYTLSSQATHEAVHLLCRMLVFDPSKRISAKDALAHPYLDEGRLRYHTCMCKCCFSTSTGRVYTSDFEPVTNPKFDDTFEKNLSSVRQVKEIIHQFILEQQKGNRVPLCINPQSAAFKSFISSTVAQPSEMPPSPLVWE
Chain of Inhibitor of nuclear factor kappa-B kinase subunit epsilon (Homo sapiens) (Q14164 whole entry): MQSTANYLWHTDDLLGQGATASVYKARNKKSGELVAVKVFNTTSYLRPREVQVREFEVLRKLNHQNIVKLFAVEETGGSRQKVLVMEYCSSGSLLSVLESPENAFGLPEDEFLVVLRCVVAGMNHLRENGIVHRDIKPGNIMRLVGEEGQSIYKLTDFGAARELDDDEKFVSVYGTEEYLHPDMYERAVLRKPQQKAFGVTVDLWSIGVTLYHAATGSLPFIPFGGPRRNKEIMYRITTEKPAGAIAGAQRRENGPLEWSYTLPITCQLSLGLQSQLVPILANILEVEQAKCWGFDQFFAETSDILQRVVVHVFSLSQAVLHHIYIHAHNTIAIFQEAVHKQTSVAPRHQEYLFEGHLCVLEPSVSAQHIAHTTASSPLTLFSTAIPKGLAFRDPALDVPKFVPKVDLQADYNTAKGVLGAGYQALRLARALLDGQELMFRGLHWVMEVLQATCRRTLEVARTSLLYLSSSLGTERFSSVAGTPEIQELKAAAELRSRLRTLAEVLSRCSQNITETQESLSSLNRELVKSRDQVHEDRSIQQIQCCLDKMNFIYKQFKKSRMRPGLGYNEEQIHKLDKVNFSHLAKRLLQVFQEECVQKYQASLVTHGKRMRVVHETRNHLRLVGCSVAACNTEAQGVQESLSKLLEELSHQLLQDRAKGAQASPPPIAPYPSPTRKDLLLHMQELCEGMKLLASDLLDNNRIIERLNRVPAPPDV
Chain of Serine/threonine-protein kinase 17B (Homo sapiens) (O94768 whole entry): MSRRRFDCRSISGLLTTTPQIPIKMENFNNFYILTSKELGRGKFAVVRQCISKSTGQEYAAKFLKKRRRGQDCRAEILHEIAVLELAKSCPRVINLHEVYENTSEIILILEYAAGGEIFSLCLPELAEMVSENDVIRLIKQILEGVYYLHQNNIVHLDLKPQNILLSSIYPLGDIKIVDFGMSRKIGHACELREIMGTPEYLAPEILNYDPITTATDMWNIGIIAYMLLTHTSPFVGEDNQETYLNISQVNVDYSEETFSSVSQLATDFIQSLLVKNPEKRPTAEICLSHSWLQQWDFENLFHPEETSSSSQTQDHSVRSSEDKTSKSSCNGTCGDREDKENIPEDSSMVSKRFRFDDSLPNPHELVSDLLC

Broadly, the inhibition is the drop in the measured response relative to a control, in per cent. For orientation: ΔTm means the shift of the melting midpoint relative to a reference. In the case of `C=CS(=O)(=O)Nc1ccc(Cc2ccc3ccccc3c2)cc1`, the result in assay [1] was Active. For the same compound, the inhibition in assay [2] turned out to be 2%; in assay [3] it was 4%; in assay [4], 16%; in [5] it was 5%; in [6] it was 5%; in assay [7] it was 18%. Besides, the inhibition was 2% in assay [8]; 11% in assay [9]; -8% in the assay filed under Homo sapiens [10]; 16% in assay [11]; -3% in [12]; 2% in [13]. Besides, the inhibition was 15% in [14]; 0% in assay [15]; 5% in [16]; -6% in assay [17]; -9% in assay [19]; -4% in assay [20]. Further, the inhibition in assay [21] is 8%; in assay [22] it was -6%; in the assay listed under Homo sapiens [23], 4%; in assay [24], 2%. Further, in [18], the ΔTm came to 7.5 °C.

The record behind these values is ChEMBL document CHEMBL4376829, “Discovery and biological evaluation of vinylsulfonamide derivatives as highly potent, covalent TEAD autopalmitoylation inhibitors” (Eur J Med Chem, 2019).
